Measurements published in the supplement of paper PMC10290057.
Where a name gives a salt, the structure may show the parent alone.

Tested on: HCT116
Assay: efficacy (fitted maximal change in viability relative to DMSO control); higher = less cytotoxic (negative = loss of viability)
Settings: 48 h
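Also: Luminescence-based viability readout, five doses per compound, normalized against on-plate DMSO and empty-well controls, followed by dose-response curve fitting for every drug.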

C/C=C/C(=O)N(CC)c1ccccc1C [Crotamiton]
efficacy: 6.9%

O=C(O)CCCCC(CCSCc1ccccc1)SCc1ccccc1 (configuration not stated) [CPI-613]
efficacy: -19.4%

C=C[C@H]1CN2CC[C@H]1C[C@H]2[C@H](O)c1ccnc2ccc(OC)cc12
efficacy: -34.1%

N[S+]([O-])(=O)OC1=CC=C2\C3=C(CCCCC3)/C(=O)OC2=C1 [Irosustat (STX-64)]
efficacy: -30.6%

NC\1=N\C(=O)N(\C=C1)[C@@H]2O[C@H](CO)[C@@H](O)[C@H]2O [Cytidine]
efficacy: -11.1%

CC(C)(C#N)c1cc(Cn2cncn2)cc(C(C)(C)C#N)c1 [Anastrozole]
efficacy: -11.5%

O=C(c1ccccc1)c1ccc2n1CCC2C(=O)O (configuration not stated) [Ketorolac]
efficacy: -7.25%

CC1(C)[C@@H](O)CC[C@@]2(C)[C@H]1CC[C@]3(C)[C@@H]2C(=O)\C=C/4[C@@H]5C[C@](C)(CC[C@]5(C)CC[C@@]34C)C(O)=O [Enoxolone]
efficacy: -35.4%

CN[C@@H](C)C(=O)N[C@H]1CN(C(=O)CC(C)C)CC[C@H]2CC[C@@H](C(=O)NC(c3ccccc3)c3ccccc3)N2C1=O [AT-406]
efficacy: -8.4%

CCCCNc1cc(C(=O)O)cc([S+](N)(=O)[O-])c1Oc1ccccc1 [Bumetanide]
efficacy: -7.8%

CNCC(O)c1ccc(O)cc1 (configuration not stated) [Synephrine]
efficacy: -16.7%

O=C(Oc1ccc([N+](=O)[O-])cc1)N1CCN(Cc2cccc(Oc3ccccc3)c2)CC1 [JZL-195]
efficacy: -38.1%

C=C1C(=O)OC(CCCCCCCC)C1C(=O)O (configuration not stated) [C75]
efficacy: -6.41%

C[S+](=O)([O-])c1ccc(Oc2cc(F)cc(C#N)c2)c2c1[C@H](O)C(F)(F)C2 [PT-2385]
efficacy: -10.6%

COC(=O)[C@H](c1ccccc1Cl)N1CCc2sccc2C1 [Clopidogrel bisulfate]
efficacy: -22.3%

COC1=CC=C(C=C1)C(=O)C2CCN(CC2)CC(=O)N(CC3CC3)C\C4=N\C5=C(\COCC5)C(=O)N4 [TNKS-656]
efficacy: -13.6%

CN(C1=CC=CC=C1)C(=O)C/2=C(O)/C3=C(C=CC=C3)N(C)C2=O [Roquinimex]
efficacy: -11.9%

C[S+](=O)([O-])Nc1ccc([N+](=O)[O-])cc1Oc1ccccc1 [Nimesulide]
efficacy: -15.6%

O=C1CCc2cc(OCCCCc3nnnn3C3CCCCC3)ccc2N1 [Cilostazol]
efficacy: -26.7%

COc1ccc([C@@H]2Sc3ccccc3N(CCN(C)C)C(=O)[C@@H]2OC(C)=O)cc1 [Diltiazem hydrochloride]
efficacy: -17.5%

COC(=O)N(CC(=O)O)Cc1cccc(OCc2nc(-c3ccc(Cl)cc3)oc2C)c1
efficacy: -8.59%

CC(C)(Sc1cc(C(C)(C)C)c(O)c(C(C)(C)C)c1)Sc1cc(C(C)(C)C)c(O)c(C(C)(C)C)c1 [Probucol]
efficacy: -25.9%

Nc1ncnc2ccccc12 [4-Quinazolinamine]
efficacy: -11.9%

COc1ccc([S+](=O)([O-])NCc2ccc(C(=O)NCCc3ccc(Cl)cn3)cc2)cc1
efficacy: -62.6%

O=C(NCC1CCCCN1)c1cc(OCC(F)(F)F)ccc1OCC(F)(F)F (configuration not stated) [Flecainide acetate]
efficacy: -24.2%

N#C/C(=C\c1ccc(O)c(O)c1)C(=O)NCc1ccccc1 [Tyrphostin B42]
efficacy: -71.9%

CC(C)(C)C1=NC2=C([NH]1)C3=CC=C(F)C=C3C4=C2\C=C/NC4=O [Pyridone 6]
efficacy: -28.4%

N[S+](=O)([O-])NCCNc1nonc1/C(=N/O)Nc1ccc(F)c(Br)c1 [Epacadostat]
efficacy: -25.2%

CC(C)Nc1cc(C(F)(F)F)cc2nc(NC(=O)c3cccnc3)nn12 [S-99]
efficacy: -15%

CCC/1=C(/NC2=C(C=N[N]2C1=O)C#N)C3=CC=CC=C3C [CPI-4203]
efficacy: 17.2%

CC(=O)NCCCS(=O)(=O)[O-] [ACAMPROSATE CALCIUM]
efficacy: 8.04%

CO[C@H]1/C=C/O[C@@]2(C)Oc3c(C)c(O)c4c(O)c(c(/C=N/N5CCN(C)CC5)c(O)c4c3C2=O)NC(=O)/C(C)=C\C=C\[C@H](C)[C@H](O)[C@@H](C)[C@@H](O)[C@@H](C)[C@H](OC(C)=O)[C@@H]1C [Rifampicin]
efficacy: -20.5%

O=C([O-])C(O)Cc1ccc(O)c(O)c1 (configuration not stated) [Sodium Danshensu]
efficacy: -9.88%

CC(C)[C@H](C(=O)Nc1ccc(C(=O)NO)cc1)c1ccccc1 [AR-42]
efficacy: -43.8%

CN[C@@H]1Cc2cccc3[nH]c(=O)n(c23)C1 [Sumanirole maleate]
efficacy: -12.4%

Cn1c(/C=C/CO)c(CO)c2c1C(=O)C=C(N1CC1)C2=O [Apaziquone]
efficacy: -8.27%

c1ccc(-c2nn3c(c2-c2ccnc4cc(OCCN5CCOCC5)ccc24)CCC3)nc1
efficacy: -41.1%

CC1=CC2=C(O1)C(=C3OC(=O)\C=C(C)/C3=C2)C [Trioxsalen]
efficacy: -19.8%

Cc1ccc(NC(=O)c2cccc(N(C)C)c2)cc1NC(=O)c1ccc(O)cc1
efficacy: -21.6%

NC(=O)c1cccc(N)c1
efficacy: -10.2%

CC(C)(Sc1ccc(CCN(CCCCC2CCCCC2)C(=O)NC2CCCCC2)cc1)C(=O)O [GW-7647]
efficacy: -45.1%

CNC(=O)[C@H](Cc1c[nH]c2ccccc12)NC(=O)[C@@H](CC(=O)NO)CC(C)C [Ilomastat (GM6001, Galardin)]
efficacy: -7.39%

Cc1ccccc1C(=O)Nc1ccc(C(=O)N2CCCC(O)c3cc(Cl)ccc32)c(C)c1 (configuration not stated) [Tolvaptan]
efficacy: -64.3%

CCOC(=O)[C@H](CCc1ccccc1)N[C@@H](C)C(=O)N1CCC[C@H]1C(=O)O [Enalapril maleate]
efficacy: -15.7%

O=C(NC1CCOCC1)c1ccc(-c2cc(-c3c[nH]nc3-c3ccccn3)ccn2)cc1
efficacy: -24%

CC[C@H](/C=C/[C@@H](C)[C@H]1CC[C@H]2[C@@H]3CC=C4C[C@@H](O)CC[C@]4(C)[C@H]3CC[C@]12C)C(C)C [Stigmasterol]
efficacy: 11.5%

COc1cc2c(cc1OC)CN(CCc1ccc(NC(=O)c3cc(OC)c(OC)cc3NC(=O)c3cnc4ccccc4c3)cc1)CC2 [Tariquidar]
efficacy: -11.3%

Cc1nn(C)c(COc2ccc(N3CCN([S+](=O)([O-])N(C)C)CC3)cc2)c1-c1cccc2c(CCCOc3cccc4ccccc34)c(C(=O)O)n(CCN3CCOCC3)c12
efficacy: -17.2%

Cc1cnc(-c2cc(N3CCN(C(=O)CC[S+](C)(=O)[O-])CC3)ncc2Cl)c(C)c1
efficacy: -93.8%

O=C(/C=C/c1ccc(O)cc1)c1ccc(O)cc1O [Isoliquiritigenin]
efficacy: -62%

C[C@]12CC[C@H]3[C@@H](C\C=C/4C[C@@H](O)CC[C@]34C)[C@@H]1CCC2=O [Dehydroepiandrosterone]
efficacy: -17%

Cn1cc(-c2c[nH]c3ncnc(N4CCOCC4)c23)cn1
efficacy: -31.9%

CCOC(=O)O[C@@]1(CC[C@H]2[C@@H]3CCC/4=C/C(=O)/C=C\[C@]4(C)[C@H]3[C@@H](O)C[C@]12C)C(=O)OCCl [Loteprednol etabonate]
efficacy: -16%

O=C(O)c1ccc(-c2c[nH]c3ncc(-c4ccccc4)cc23)cc1C1CCCC1
efficacy: -22.5%

OC1=CC=C(C=C1)\C2=C(O)\C(=O)C3=C(O2)C=C(O)C=C3O [Kaempferol]
efficacy: 12.7%

O=C(O)c1ccc(CN2CCC(CN[C@@H]3C[C@H]3c3ccccc3)CC2)cc1
efficacy: -14.1%

O=C(CBr)N1CC([N+](=O)[O-])([N+](=O)[O-])C1 [RRx-001]
efficacy: -23.7%
